Results taken from PubChem BioAssay AID2060358 (Molecular Pharmacology Branch, DTP, NCI, 2025).

System: 254851-301-R-J1-PDC spheroids, viability % test/control
Test: Anticancer human tumor 254851-301-R-J1-PDC patient-derived colon carcinoma cell line growth inhibition [TAK]
Conditions: spheroids with HUVEC and MSC; for IC50: curve of first compound; for viability, T/C: stronger effect = lower value
Summary of the method: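 Drug combinations, each paired with TAK-243 or ipatasertib, were tested on multi-cell spheroids of 60% malignant cells, 25% HUVEC and 15% hMSC. Top concentrations were at or near the clinical Cmax (10 microM if undetermined), decreasing by half-log; viability is given as % test/control.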

[1] = second compound 0.3 µM, first compound 0.0316 µM
[2] = second compound 0.3 µM, first compound 0.1 µM
[3] = second compound 0.3 µM, first compound 0.316 µM
[4] = second compound 0.3 µM, first compound 1 µM
[5] = second compound 0.949 µM, first compound 0.0316 µM
[6] = second compound 0.949 µM, first compound 0.1 µM
[7] = second compound 0.949 µM, first compound 0.316 µM
[8] = second compound 0.949 µM, first compound 1 µM
[9] = second compound 3 µM, first compound 0.0316 µM
[10] = second compound 3 µM, first compound 0.1 µM
[11] = second compound 3 µM, first compound 0.316 µM
[12] = second compound 3 µM, first compound 1 µM
[13] = second compound 9.49 µM, first compound 0.0316 µM
[14] = second compound 9.49 µM, first compound 0.1 µM
[15] = second compound 9.49 µM, first compound 0.316 µM
[16] = second compound 9.49 µM, first compound 1 µM
[17] = second compound 30 µM, first compound 0.0316 µM
[18] = second compound 30 µM, first compound 0.1 µM
[19] = second compound 30 µM, first compound 0.316 µM
[20] = second compound 30 µM, first compound 1 µM
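Note: spheroids exposed to drugs for seven days before viability readout.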
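Throughout, for viability, T/C: 100% = DMSO vehicle control viability.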

COc1c(OCCCN2CCOCC2)ccc2c3n(c(=NC(=O)c4cnc(N)nc4)nc12)CCN3 + CC(C)NCC(C(=O)N1CCN(c2ncnc3c2C(C)CC3O)CC1)c1ccc(Cl)cc1
IC50 (second compound 0.3 µM): > 1 µM
IC50 (second compound 0.949 µM): > 1 µM
IC50 (second compound 3 µM): > 1 µM
IC50 (second compound 9.49 µM): > 1 µM
IC50 (second compound 30 µM): > 1 µM
viability, T/C (second compound 0.3 µM, first compound 0.00316 µM): 114%
viability, T/C (second compound 0.3 µM, first compound 0.01 µM): 105%
viability, T/C [1]: 88.2%
viability, T/C [2]: 78.1%
viability, T/C [3]: 63.7%
viability, T/C [4]: 67.6%
viability, T/C (second compound 0.949 µM, first compound 0.00316 µM): 104%
viability, T/C (second compound 0.949 µM, first compound 0.01 µM): 106%
viability, T/C [5]: 92.5%
viability, T/C [6]: 76.3%
viability, T/C [7]: 60%
viability, T/C [8]: 65%
viability, T/C (second compound 3 µM, first compound 0.00316 µM): 111%
viability, T/C (second compound 3 µM, first compound 0.01 µM): 108%
viability, T/C [9]: 95.5%
viability, T/C [10]: 82.7%
viability, T/C [11]: 76.8%
viability, T/C [12]: 67.3%
viability, T/C (second compound 9.49 µM, first compound 0.00316 µM): 99.1%
viability, T/C (second compound 9.49 µM, first compound 0.01 µM): 100%
viability, T/C [13]: 101%
viability, T/C [14]: 82.4%
viability, T/C [15]: 75.8%
viability, T/C [16]: 74.4%
viability, T/C (second compound 30 µM, first compound 0.00316 µM): 81.5%
viability, T/C (second compound 30 µM, first compound 0.01 µM): 85.1%
viability, T/C [17]: 84.2%
viability, T/C [18]: 71.5%
viability, T/C [19]: 69.8%
viability, T/C [20]: 59.9%

Cc1nc(NC(=O)N2CCCC2C(N)=O)sc1-c1ccnc(C(C)(C)C(F)(F)F)c1 (stereo not given) + CC(C)NCC(C(=O)N1CCN(c2ncnc3c2C(C)CC3O)CC1)c1ccc(Cl)cc1
IC50 (second compound 0.3 µM): > 10 µM
IC50 (second compound 0.949 µM): > 10 µM
IC50 (second compound 3 µM): > 10 µM
IC50 (second compound 9.49 µM): > 10 µM
IC50 (second compound 30 µM): > 10 µM
viability, T/C [1]: 117%
viability, T/C [2]: 102%
viability, T/C [3]: 109%
viability, T/C [4]: 89.4%
viability, T/C (second compound 0.3 µM, first compound 3.16 µM): 79.4%
viability, T/C (second compound 0.3 µM, first compound 10 µM): 73.4%
viability, T/C [5]: 106%
viability, T/C [6]: 114%
viability, T/C [7]: 93.6%
viability, T/C [8]: 99.5%
viability, T/C (second compound 0.949 µM, first compound 3.16 µM): 83.1%
viability, T/C (second compound 0.949 µM, first compound 10 µM): 69%
viability, T/C [9]: 113%
viability, T/C [10]: 101%
viability, T/C [11]: 98%
viability, T/C [12]: 94.6%
viability, T/C (second compound 3 µM, first compound 3.16 µM): 79.3%
viability, T/C (second compound 3 µM, first compound 10 µM): 73.9%
viability, T/C [13]: 105%
viability, T/C [14]: 106%
viability, T/C [15]: 101%
viability, T/C [16]: 97.3%
viability, T/C (second compound 9.49 µM, first compound 3.16 µM): 85%
viability, T/C (second compound 9.49 µM, first compound 10 µM): 74.8%
viability, T/C [17]: 82.5%
viability, T/C [18]: 99.3%
viability, T/C [19]: 88.4%
viability, T/C [20]: 79.4%
viability, T/C (second compound 30 µM, first compound 3.16 µM): 79.4%
viability, T/C (second compound 30 µM, first compound 10 µM): 69.4%
